The results in this text go back to patent EP1588698A2, “A process for the production and screening of materials for use in pharmaceutical aerosol formulations” (Thompson, James Anthony, priority 2004, dated 2005).

Assay type in all cases: physicochemical
The nature of data set [1]: Screening of salt derivative solubility in ethanol co-solvent. The source says: Solubility, of a drug salt derivative, to an appreciable extent, in solvents miscible with the propellant(s) provides a simple yet robust screening method.
The co-solvent used to screen derivative solubility and formulation approach was ethanol. […] A comprehensive list can be taken from texts such as the handbook of pharmaceutical excipients. Ethanol and water mixtures may be utilised. For solution aerosols a single phase is required when in the final formulation, but equally a suspension or emulsion may results and be utilised. As the model bronchodilator was a basic compound acids requisite for salt formation (from pKa values) were selected. […] The solvent necessary to facilitate dissolution is assumed to be of sufficient dielectric constant and an ideal solvent, although skilled practitioners will endeavor to try a range of solvents as formulation science is empirical. Other examples of suitable acids are acetate, benzenesulphonate, mesylate etc, and can be sought from any suitable text: Martindale 2005. […] Preferentially precipitated or solvated species may result from careful selection of reagents and forms of the active described. Preferentially precipitated or solvated compounds can be isolated either in bulk or in-situ for use.
Two non-limiting examples of use of the manufacture/ screening method are described below.

Data set [2] can be described thus: Stability of ethanol / HFA 134(a) pMDI formulations in plastic coated glass bottles. The following applies: ethanol co-solvent in HFA 134(a); equivalent to 100mcg of free base per actuation. The source says:
The solid compound is then isolated by a suitable method. Figures 3 and 4 indicates the solubility profiles of the respective salts synthesised. […] The mass of derivative was formulated at a level to give an equivalent to 100mcg of free base per actuation from the metering valve. Results from the formulations are depicted in figure 5 for the maleate salt 6 for the oleate salt and 7 to illustrate the precipitation technique by 7 controlled precipitation by the use of a second antisolvent: water on formulations of salbutamol maleate. […] Skilled artisans may endeavour to include surfactants or further co-solvents to enhance solubility. Such excipients may include but not be limited to conventional surfactants: Brij's Tween's lecithins polyvinylpyrollidone and those described in suitable pharmaceutical excipients handbooks. Figures 5, 6 (maleate salt side and plan views) and 7 (oleate salt arrows indicate crystals) illustrate 134(a) as an antisolvent as the drug […] from solution. The particle size of each drug is different, which leads to an embodiment of invention: use of derivative, co-solvent level, excipients level and antisolvent concentrations to precipitate actives to a desired particle size by careful moderation of the components. […] Formulations were then stored at specified temperatures and assessed periodically. […]

Data set [3] can be described thus: Cascade impactor particle size and deposition under controlled temperature and relative humidity. The source says:
Formulations of salt derivatives whether prepared by the following method but any suitable method can be utilise. Plastic coated glass pMDI bottles (St Gobain, France) were weighed on a balance and tared after first undergoing a rinse with clean and dry compressed air. Drug was weighed accurately by difference in order to give an equivalent of 100mcg freebase as related to molecular mass of the salt and the same procedure repeated for absolute ethanol (Fisher scientific). A continuous […] on (Bespak, Kings Lynn, UK), according to manufacturers specifications and the bottle then sonicated (Decon FS 3006) for several minutes to induce complete dissolution of the drug. The bottle was then dried and once again tared on the balance. HFA 134(a) was subsequently charged through the valve using a Pamasol 2002 hand […] (DH Industries, Laindon, Essex, UK). The final formulation preparation was sonicated for a further several minutes for completeness. Formulations were then stored at specified temperatures and assessed periodically. All solutions were prepared in duplicate. 10% w/w ethanol : 90% w/w HFA 134(a) formulations were prepared. This is in no way intended to limit the extent of the formulations. Solutions were tested for particle size using a cascade impactor, which to that practitioner skilled is standardised method for determining particle size distributions, under conditions of thermal and environmental control. Figures 9-12 illustrate the invention from particle size results. […] It is therefore an embodiment to use derivatives to utilise derivatives not known to optimise deposition.

The nature of data set [4]: Morphology of particles deposited from pMDI (SEM, impactor plate). To be noted: lab ambient, without a liquid air interface.

For salbutamol fumarate, in data set [1], the solubility in ethanol result is “NB the Fumarate was insoluble in ethanol even though its only difference to the maleate was the trans arrangement of the carboxylic acid groups”.
For Salbutamol cis-octadecenoate (Oleate), the “co-solvent level at which stable solution formulations achievable” value in data set [2] worked out at 30 % w/w. For the same substance, the “%Deposited at Location ACTUATOR” value in data set [3] (HT/HRH) came out at 20.37%; in data set [3] (HT/LRH), 16.74%; in data set [3] (LT/HRH), 19.54%; in data set [3] (LT/LRH), 6.86%. Moreover, the “%Deposited at Location FPF” value in data set [3] (HT/HRH) is recorded as 67.00%; in data set [3] (HT/LRH), 67.87%; in data set [3] (LT/HRH), 67.43%; in data set [3] (LT/LRH), 72.33%. In addition, the “%Deposited at Location THROAT” value in data set [3] (HT/HRH) is reported as 7.52%; in data set [3] (HT/LRH), 7.70%; in data set [3] (LT/HRH), 8.82%; in data set [3] (LT/LRH) it was 17.29%. In data set [4], the “particle morphology on deposition” value was “spread as a surfactant”.
With Salbutamol cis-butenedioate (Maleate), the solubility in ethanol result in data set [1] is on record as “ethanol soluble”. Also, the “behaviour of the salt in ethanol solution (stable or precipitates)” value in data set [1] (ethanol reaction solution) is reported as “stable as a solution in ethanol, even at ultra low temperatures”. Also, in data set [2], the “co-solvent level at which stable solution formulations achievable” value is reported as 15 % w/w. The “%Deposited at Location ACTUATOR” value in data set [3] (HT/HRH) is listed as 27.35%; in data set [3] (HT/LRH), 22.00%; in data set [3] (LT/HRH), 16.33%; in data set [3] (LT/LRH), 8.97%. For the same substance, the “%Deposited at Location FPF” value in data set [3] (HT/HRH) was 57.42%; in data set [3] (HT/LRH), 63.24%; in data set [3] (LT/HRH) it was 52.88%; in data set [3] (LT/LRH), 42.76%. Besides, the “%Deposited at Location THROAT” value in data set [3] (HT/HRH) came to 11.78%; in data set [3] (HT/LRH), 12.74%; in data set [3] (LT/HRH), 25.96%; in data set [3] (LT/LRH), 44.24%.
